Counter-ions that a name gives are not always drawn.
Key:
[1] = target: T1, human JAK1 kinase domain (JH1) (Homo sapiens, UniProt P23458); experiment: JH1 biochemical assay for JAK1 (ADP-Glo kinase assay, recombinant JH1 catalytic domain, JAK3-342 peptide, 35 μM ATP)
T1 construct: recombinantly generated catalytic kinase (also known as JH1) domain of human JAK1, JAK2, JAK3 and TYK2
Summary of the method: (§1)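 Reactions contain 50 μM peptide and run 100 minutes, with enzyme at 4, 0.2, 0.3 and 2 nM for JAK1, JAK2, JAK3 and TYK2. Generated ADP is read by luminescence; IC50 derives from normalized dose-response curves.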

[2] = target: T2, human JAK2 kinase domain (JH1) (Homo sapiens, UniProt O60674); experiment: JH1 biochemical assay for JAK2 (ADP-Glo kinase assay, recombinant JH1 catalytic domain, JAK3-974 peptide, 15 μM ATP)
T2 construct: recombinantly generated catalytic kinase (also known as JH1) domain of human JAK1, JAK2, JAK3 and TYK2
T2 sequence (O60674 849-1124 limits assumed): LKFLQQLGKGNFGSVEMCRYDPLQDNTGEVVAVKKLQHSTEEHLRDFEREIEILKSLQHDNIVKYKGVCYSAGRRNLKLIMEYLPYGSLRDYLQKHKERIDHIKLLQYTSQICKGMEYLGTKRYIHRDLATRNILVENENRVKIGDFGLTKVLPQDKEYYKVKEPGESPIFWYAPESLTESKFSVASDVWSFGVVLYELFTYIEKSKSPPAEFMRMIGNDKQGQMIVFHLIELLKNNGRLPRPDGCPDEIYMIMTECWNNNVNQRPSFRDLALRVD
Summary of the method: as §1

[3] = target: T3, human JAK3 kinase domain (JH1) (Homo sapiens, UniProt P52333); experiment: JH1 biochemical assay for JAK3 (ADP-Glo kinase assay, recombinant JH1 catalytic domain, JAK3-974 peptide, 4 μM ATP)
T3 construct: recombinantly generated catalytic kinase (also known as JH1) domain of human JAK1, JAK2, JAK3 and TYK2
T3 sequence (P52333 822-1111 limits assumed): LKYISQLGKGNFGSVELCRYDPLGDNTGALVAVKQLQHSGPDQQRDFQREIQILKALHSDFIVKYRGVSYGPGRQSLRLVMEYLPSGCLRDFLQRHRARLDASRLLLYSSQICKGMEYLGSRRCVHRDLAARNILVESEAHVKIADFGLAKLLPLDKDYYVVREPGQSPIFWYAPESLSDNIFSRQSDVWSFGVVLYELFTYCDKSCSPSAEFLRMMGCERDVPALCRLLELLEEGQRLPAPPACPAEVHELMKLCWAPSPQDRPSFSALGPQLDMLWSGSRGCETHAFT
Summary of the method: as §1

[4] = target: T4, human TYK2 kinase domain (JH1) (Homo sapiens, UniProt P29597); experiment: JH1 biochemical assay for TYK2 (ADP-Glo kinase assay, recombinant JH1 catalytic domain, JAK3-974 peptide, 10 μM ATP)
T4 construct: recombinantly generated catalytic kinase (also known as JH1) domain of human JAK1, JAK2, JAK3 and TYK2
T4 sequence (P29597 897-1176 limits assumed): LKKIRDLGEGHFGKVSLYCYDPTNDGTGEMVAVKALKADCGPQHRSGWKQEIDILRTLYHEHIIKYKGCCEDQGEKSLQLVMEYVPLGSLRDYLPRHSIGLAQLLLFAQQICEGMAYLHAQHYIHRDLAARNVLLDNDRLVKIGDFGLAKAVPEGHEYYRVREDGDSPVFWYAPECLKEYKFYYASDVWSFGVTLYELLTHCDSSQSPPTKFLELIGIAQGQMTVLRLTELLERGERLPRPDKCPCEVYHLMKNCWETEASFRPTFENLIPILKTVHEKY
Summary of the method: as §1

T1 sequence (P23458 875-1153 limits assumed): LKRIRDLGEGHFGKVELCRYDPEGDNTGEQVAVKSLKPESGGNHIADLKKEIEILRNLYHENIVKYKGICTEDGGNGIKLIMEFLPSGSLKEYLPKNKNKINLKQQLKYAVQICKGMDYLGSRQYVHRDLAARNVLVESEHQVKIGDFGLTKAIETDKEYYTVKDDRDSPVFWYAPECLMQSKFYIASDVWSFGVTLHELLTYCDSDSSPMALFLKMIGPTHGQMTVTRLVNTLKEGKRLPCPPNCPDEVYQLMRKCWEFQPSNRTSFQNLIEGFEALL

SMILES	IC50 ([1]; JH1 kinase domain, ADP-Glo) [nM]	IC50 ([2]; JH1 kinase domain, ADP-Glo) [nM]	IC50 ([3]; JH1 kinase domain, ADP-Glo) [nM]	IC50 ([4]; JH1 kinase domain, ADP-Glo) [nM]	IC50 ([1]; JAK1 JH1, ADP-Glo) [nM]	IC50 ([2]; JAK2 JH1, ADP-Glo) [nM]	IC50 ([3]; JAK3 JH1, ADP-Glo) [nM]	IC50 ([4]; TYK2 JH1, ADP-Glo) [nM]
COc1cnc(-c2cc3c(N4C[C@@H](C)[C@@](C#N)(C5CC5)C4=O)ccnn3c2)cn1 [Example 132, (3R,4S)-3-cyclopropyl-1-(6-(5-methoxypyrazin-2-yl)pyrrolo[1,2-b]pyridazin-4-yl)-4-methyl-2-oxopyrrolidine-3-carbonitrile trifluoroacetate]	1000 to 5000	1000 to 5000	1000 to 5000	50 to 100	–	–	–	–
C[C@@H]1CN(c2ccnn3cc(-c4cnc5n4CCCC5)cc23)C(=O)[C@]1(C#N)C1CC1 [Example 100, (3R,4S)-3-cyclopropyl-4-methyl-2-oxo-1-(6-(5,6,7,8-tetrahydroimidazo[1,2-a]pyridin-3-yl)pyrrolo[1,2-b]pyridazin-4-yl)pyrrolidine-3-carbonitrile trifluoroacetate]	1000 to 5000	1000 to 5000	1000 to 5000	50 to 100	–	–	–	–
COc1ncc(-c2cc3c(N4C[C@@H](C)[C@@](C#N)(C5CC5)C4=O)ccnn3c2)cn1 [Example 76, (3R,4S)-3-cyclopropyl-1-(6-(2-methoxypyrimidin-5-yl)pyrrolo[1,2-b]pyridazin-4-yl)-4-methyl-2-oxopyrrolidine-3-carbonitrile]	100 to 1000	1000 to 5000	1000 to 5000	50 to 100	–	–	–	–
C[C@@H]1CN(c2ccnn3cc(-n4ccccc4=O)cc23)C(=O)[C@]1(C#N)C1CC1 [Example 340, (3R,4S)-3-cyclopropyl-4-methyl-2-oxo-1-(6-(2-oxopyridin-1(2H)-yl)pyrrolo[1,2-b]pyridazin-4-yl)pyrrolidine-3-carbonitrile]	–	–	–	–	> 10000	> 10000	1000 to 5000	> 100
C[C@@H]1CN(c2ccnn3cc(-c4nccc(C(F)(F)F)n4)cc23)C(=O)[C@]1(C#N)C1CC1 [Example 120, (3R,4S)-3-cyclopropyl-4-methyl-2-oxo-1-(6-(4-(trifluoromethyl)pyrimidin-2-yl)pyrrolo[1,2-b]pyridazin-4-yl)pyrrolidine-3-carbonitrile trifluoroacetate]	5000 to 10000	> 10000	1000 to 5000	> 100	–	–	–	–
C[C@@H]1CN(c2nc(-c3cncnc3)cn3nccc23)C(=O)[C@]1(C#N)C1CC1 [Example 265, (3R,4S)-3-cyclopropyl-4-methyl-2-oxo-1-(6-(pyrimidin-5-yl)pyrazolo[1,5-a]pyrazin-4-yl)pyrrolidine-3-carbonitrile trifluoroacetate]	–	–	–	–	1000 to 5000	1000 to 5000	1000 to 5000	50 to 100
C[C@@H]1C[C@@](C#N)(C2CC2)C(=O)N1c1ccnn2cc(-c3cnn(C)c3)cc12 [Example 17, (3S,5R)-3-cyclopropyl-5-methyl-1-(6-(1-methyl-1H-pyrazol-4-yl)pyrrolo[1,2-b]pyridazin-4-yl)-2-oxopyrrolidine-3-carbonitrile]	1000 to 5000	100 to 1000	5000 to 10000	> 100	–	–	–	–
COc1ncc(-c2cc3c(N4C[C@@H](C)[C@@](C#N)(C5CC5)C4=O)ccnn3c2)cc1C#N [Example 85, 5-(4-((3R,4S)-3-cyano-3-cyclopropyl-4-methyl-2-oxopyrrolidin-1-yl)pyrrolo[1,2-b]pyridazin-6-yl)-2-methoxynicotinonitrile]	1000 to 5000	1000 to 5000	1000 to 5000	20 to 50	–	–	–	–
C[C@@H]1CN(c2ccnn3cc(-c4cncn4C)cc23)C(=O)[C@]1(C#N)C1CC1 [Example 89, (3R,4S)-3-cyclopropyl-4-methyl-1-(6-(1-methyl-1H-imidazol-5-yl)pyrrolo[1,2-b]pyridazin-4-yl)-2-oxopyrrolidine-3-carbonitrile]	1000 to 5000	1000 to 5000	1000 to 5000	20 to 50	–	–	–	–

Continued, values first:

IC50 ([1]; JH1 kinase domain, ADP-Glo) [nM]	IC50 ([2]; JH1 kinase domain, ADP-Glo) [nM]	IC50 ([3]; JH1 kinase domain, ADP-Glo) [nM]	IC50 ([4]; JH1 kinase domain, ADP-Glo) [nM]	IC50 ([1]; JAK1 JH1, ADP-Glo) [nM]	IC50 ([2]; JAK2 JH1, ADP-Glo) [nM]	IC50 ([3]; JAK3 JH1, ADP-Glo) [nM]	IC50 ([4]; TYK2 JH1, ADP-Glo) [nM]	SMILES
100 to 1000	100 to 1000	100 to 1000	5 to 20	–	–	–	–	C[C@@H]1CN(c2ccnn3cc(-c4cnn5c4CCCC5)cc23)C(=O)[C@]1(C#N)C1CC1 [Example 173, (3R,4S)-3-cyclopropyl-4-methyl-2-oxo-1-(6-(4,5,6,7-tetrahydropyrazolo[1,5-a]pyridin-3-yl)pyrrolo[1,2-b]pyridazin-4-yl)pyrrolidine-3-carbonitrile]
> 10000	5000 to 10000	5000 to 10000	> 100	–	–	–	–	COC[C@]1(C#N)CCN(c2ccnn3cc(-c4cnn(C)c4)cc23)C1=O (single isomer, unassigned) [Example 41]
100 to 1000	1000 to 5000	100 to 1000	20 to 50	–	–	–	–	Cc1csc(-c2cc3c(N4C[C@@H](C)[C@@](C#N)(C5CC5)C4=O)ccnn3c2)n1 [Example 113, (3R,4S)-3-cyclopropyl-4-methyl-1-(6-(4-methylthiazol-2-yl)pyrrolo[1,2-b]pyridazin-4-yl)-2-oxopyrrolidine-3-carbonitrile trifluoroacetate]
–	–	–	–	> 10000	1000 to 5000	1000 to 5000	> 100	C[C@@H]1CN(c2nc(-c3cccnc3OC(F)F)cn3nccc23)C(=O)[C@]1(C#N)C1CC1 [Example 256, (3R,4S)-3-cyclopropyl-1-(6-(2-(difluoromethoxy)pyridin-3-yl)pyrazolo[1,5-a]pyrazin-4-yl)-4-methyl-2-oxopyrrolidine-3-carbonitrile trifluoroacetate]
1000 to 5000	1000 to 5000	5000 to 10000	50 to 100	–	–	–	–	COc1cc(-c2cc3c(N4C[C@@H](C)[C@@](C#N)(C5CC5)C4=O)ccnn3c2)c(OC)nn1 [Example 98, (3R,4S)-3-cyclopropyl-1-(6-(3,6-dimethoxypyridazin-4-yl)pyrrolo[1,2-b]pyridazin-4-yl)-4-methyl-2-oxopyrrolidine-3-carbonitrile]
> 10000	> 10000	> 10000	> 100	–	–	–	–	C[C@H]1C[C@@](C#N)(C2CC2)C(=O)N1c1ccnn2cc(-c3cnn(C)c3)cc12 [Example 31, (3S,5S)-3-cyclopropyl-5-methyl-1-(6-(1-methyl-1H-pyrazol-4-yl)pyrrolo[1,2-b]pyridazin-4-yl)-2-oxopyrrolidine-3-carbonitrile]
> 10000	5000 to 10000	> 10000	> 100	–	–	–	–	Cn1cc(-c2cc3c(N4CC[C@](C#N)(C5CCC5)C4=O)ccnn3c2)cn1 (single isomer, unassigned) [Example 47]
1000 to 5000	1000 to 5000	1000 to 5000	50 to 100	–	–	–	–	Cc1ncc(-c2cc3c(N4C[C@@H](C)[C@@](C#N)(C5CC5)C4=O)ccnn3c2)cn1 [Example 80, (3R,4S)-3-cyclopropyl-4-methyl-1-(6-(2-methylpyrimidin-5-yl)pyrrolo[1,2-b]pyridazin-4-yl)-2-oxopyrrolidine-3-carbonitrile]
100 to 1000	100 to 1000	100 to 1000	20 to 50	–	–	–	–	C[C@@H]1CN(c2ccnn3cc(-c4cc(CO)ccn4)cc23)C(=O)[C@]1(C#N)C1CC1 [Example 148, (3R,4S)-3-cyclopropyl-1-(6-(4-(hydroxymethyl)pyridin-2-yl)pyrrolo[1,2-b]pyridazin-4-yl)-4-methyl-2-oxopyrrolidine-3-carbonitrile trifluoroacetate]
